System: mdx triangularis sterni (TS) muscle
Assay: Percent fibers and percent striated fibers in photographed areas of fixed mdx TS muscle
Format: in vivo, mdx mice
Procedure: To evaluate the effect of various chemical agents on animal models of MD, experimental male and female mdx mice may be injected intraperitoneally (ip) with various chemicals at different dosage. In the case of pyrrolidine dithiocarbamate (PDTC) (50-75 mg/kg of PDTC (obtained from Sigma) may be dissolved in a saline solution (HEPES-Ringer; in mM: 147.5 NaCl, 5 KCl, 2 CaCl2, 11 glucose, 5 HEPES, pH 7.35) for injection. […] The mice may be sacrificed after 1-24 months from the beginning of treatment to determine the effect of the treatment with the chemicals.
In one embodiment, the treatment effect may be evaluated by comparing the morphological results between 3 regions of the triangularis sterni (TS); the caudal third of the muscle extending toward the xiphoid process, the middle third, and the cephalad third of the muscle. This procedure is adopted because there are obvious differences between these regions in the extent of pathology and the muscle thickness in the mdx TS (not clearly seen in the nondystrophic TS) even when examining the muscle at low power (e.g., 4×). Results from animals that die during the experimental time frame (both saline injected and PDTC treated) are typically excluded from the study.
Morphological assessment of total fiber density and density of striated fibers may be conducted as described in the following text. Immediately after completing the resting potential measurements, the minimally stretched TS muscle preparations attached to the dissecting hooks may be fixed overnight in 2% glutaraldehyde (0.1 M cacodylate buffer) and subsequently washed several times in 0.1 M cacodylate. Before removing the preparation from the recording chamber, microphotographs of approximately 24 randomly sampled areas may be obtained at 200-300× magnification in caudal, middle, and cephalad regions of the TS. In the initial studies, a smaller number of photographs may be obtained over the middle portion of the TS muscle.
Each preparation may be illuminated using bright-field optics to minimize depth of focus issues in visualizing muscle fiber striations. Since the mdx TS muscle is a flat and thin preparation, all the fibers in each area are roughly within the same focal plane. However, small variations in depth of focus may produce small variations in the appearance of striated fibers. Such effects may be minimized by routinely adjusting the plane of focus to maximize the number of striated fibers in each photographed area. The density of muscle fibers and the density of striated fibers may then be evaluated for each sampled area by drawing a line orthogonal to the principal axis of the TS muscle fibers across the entire viewing area of each photograph. The percentage of the length of this line that covered muscle fibers and the percentage of this line that covered striated muscle fibers (defined as having striations over at least 50% of the observed length) may be used to determine the percentage of muscle fibers and striated muscle fibers, respectively, for each photographed muscle area. Control experiments using these procedures on adult nondystrophic TS muscles (N=37 areas, 2 TS muscles at 19 and 27 months) may yield average values of 99.1±0.5 (SE) percent fibers and 96.7±1.2 percent striated fibers with no regional differences across the caudal, middle, and cephalad thirds of the muscle (FIG. 3).
In freshly isolated preparations of mdx TS muscle, hypercontraction and myofibrillar disorganization are expressed as a decrease in the appearance of striated muscle fibers (See e.g., FIG. 2A) and fiber loss and fibrosis appear as a decrease in the number of fibers in individual areas of the TS (See e.g., FIG. 2B; cf. Carlson et al., 2003 and Cullen and Fulthorpe, 1975). […]

## S=C(S)N1CCCC1 [PDTC, pyrrolidine dithiocarbamate]
50 mg/kg ip 48-76 days, Series 2 (11.5-18.5 months) and Series 3 (21.5-22 months)
  density of fibers in the TS: increases
Series 1, vs untreated, P<0.01
  increase in the percentage of striated muscle fibers: 3 fold
Series 1: 50-75 mg/kg ip daily 27-30 days, 8.5-9 months at sacrifice, middle region, FIG. 2C
  striated fibers in photographed area: approximately 82%
Series 1: 50-75 mg/kg ip daily 27-30 days, same in untreated
  average percent fibers: about 80%
Series 1: 50-75 mg/kg ip, 27-30 days, 8.5-9 months at sacrifice
  density of striated fibers: increases
Series 2: 50 mg/kg daily, 11.5-18.5 months at sacrifice, middle third, P<0.01 vs saline
  increase in the percent of fibers: 1.7 fold
Series 2, P<0.05 vs saline
  overall percent of fibers across all regions: significant increase
Series 2, middle region, P<0.01 vs saline
  increased percent of striated fibers: 8.4 fold
Series 3 (22 months), caudal, middle and overall total of sampled areas
  increase in the percent of striated fibers: 22- to 68 fold
Series 3: aged mdx mice (22 months), 50 mg/kg daily, across all regions, P<0.01 or P<0.001
  increases in the density of muscle fibers: 4.1- to 11.1 fold
Series 4: individual mdx mouse, 50 mg/kg on 238 of 258 days, 13.5 months of age, N=25
  overall percent fibers: 82.2±2.6%
Series 4: individual mdx mouse, 50 mg/kg on 238 of 258 days, 13.5 months of age, N=25 areas
  overall percent striated fibers: 40.4±2.6%
Series 4: longer administration beginning in 5 month mdx mice, middle and cephalad regions, P<0.001
  effect of treatment on the percent of striated fibers: significant effect
Daily PDTC, Series 2 and Series 3
  density of striated TS fibers: increases

From patent US20100292306A1, “Compositions And Methods For The Treatment Of Muscular Dystrophy” (priority 2005, published 2010)
